Source: the supplement of paper PMC10702517
± gives the standard deviation.

Tests used:
[1] = chemical recovery by SPE of plasma after PDMS sampling; higher = better extraction; details: pooled human plasma, extraction method: HLB SPE of plasma after PES
[2] = chemical recovery from spiked human plasma; higher = better extraction; details: pooled human plasma
[3] = chemical recovery into PDMS from spiked human plasma; higher = better extraction; details: pooled human plasma, extraction method: PES with PDMS
[4] = extraction method: PES+SPE (3 d PDMS equilibration then HLB SPE)
[5] = extraction method: SPE only (HLB 96-well)
[6] = extraction method: SPE only (HLB 96-well), PES comparison experiment
[7] = extraction method: solvent precipitation (ACN + hexane)
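For chemical recovery by SPE of plasma after PDMS sampling in this document: over 400 spiked chemicals quantified by LC-HRMS or GC-HRMS via internal standard calibration, recovery relative to spike mix added to unspiked plasma extract to correct matrix effects.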

SMILES | chemical recovery by SPE of plasma ([1]; equilibration time (d): 1) [%] | chemical recovery by SPE of plasma ([1]; equilibration time (d): 3) [%] | chemical recovery by SPE of plasma ([1]; equilibration time (d): 6) [%] | chemical recovery [2, 4] [%] | chemical recovery [2, 5] [%] | chemical recovery [2, 6] [%] | chemical recovery [2, 7] [%] | chemical recovery into PDMS ([3]; equilibration time (d): 1) [%] | chemical recovery into PDMS ([3]; equilibration time (d): 3) [%] | chemical recovery into PDMS ([3]; equilibration time (d): 6) [%]
CC(C)(C)C(=O)C(Oc1ccc(Cl)cc1)n1ccnc1 (stereo not drawn) [Climbazole] | 1.65 ± 0.14 | 1.11 ± 0.35 | 0.487 ± 0.043 | 66.5 ± 6.8 | 37.7 ± 2.8 | 46.8 ± 4.8 | 75.1 ± 3.8 | 41.2 ± 2.2 | 40 ± 1 | 39.7 ± 1.4
CNC(=O)Oc1cccc2c1OC(C)(C)O2 [Bendiocarb] | 20.4 ± 0.99 | 26.5 ± 2.1 | 21.6 ± 1.7 | 35.9 ± 5.4 | 45.8 ± 1.5 | 45.4 ± 4.6 | 0.0898 ± 0.13 | 25.2 ± 0.81 | 20.4 ± 0.2 | 21.4 ± 0.87
c1ccc(/N=N/c2ccccc2)cc1 [Azobenzene] | 0.184 ± 0.32 | 0.401 ± 0.35 | 0.284 ± 0.25 |  |  | 8.55 ± 2.6 |  | 26.2 ± 3.9 | 28.4 ± 5.6 | 27.9 ± 4
COCCN(C(=O)CS(=O)(=O)O)c1c(C)cccc1C [Dimethachlor ESA] | 46.9 ± 7.3 | 53.3 ± 3.2 | 48 ± 4.5 |  |  | 50.3 ± 3.3 |  | 0.000876 ± 0.0015 | 0.000445 ± 0.00077 | 
CCOc1nc2cccc(C(=O)O)c2n1Cc1ccc(-c2ccccc2-c2nnn[nH]2)cc1 [Candesartan] | 48 ± 8.7 | 50.1 ± 3 | 47.8 ± 4.2 | 41.3 ± 6.7 | 42 ± 8 | 36.9 ± 3.9 | 58.8 ± 12 |  |  | 0.00245 ± 0.0094
CCC(=O)O[C@]1(C(=O)SCF)[C@H](C)C[C@H]2[C@@H]3C[C@H](F)C4=CC(=O)C=C[C@]4(C)[C@@]3(F)[C@@H](O)C[C@@]21C [Fluticasone propionate] |  | 4.78 ± 8.3 |  |  |  | 41.1 ± 5.8 |  | 32.3 ± 3 | 39.3 ± 3.7 | 41.3 ± 2.3
c1ccc2ncccc2c1 [Quinoline] | 0.053 ± 0.092 | 0.00565 ± 0.0098 | 0.0105 ± 0.018 |  | 16.5 ± 4.6 |  |  | 8.77 ± 5.3 | 9.55 ± 7.5 | 4.43 ± 4.2
Clc1cc(Cl)c(-c2ccc(Cl)c(Cl)c2Cl)cc1Cl [PCB138] | 4.29 ± 2.9 | 1.78 ± 0.29 | 1.33 ± 0.48 | 61.3 ± 12 | 2.27 ± 0.8 | 11.2 ± 2.8 | 81.6 ± 6.5 | 67.4 ± 9.5 | 91.8 ± 1.4 | 89.4 ± 5.2
Cc1cc(O)cc(C)c1[S+](C)[O-] (stereo not drawn) [Methiocarb-sulfoxide phenol] | 66.4 ± 8.3 | 66.7 ± 4.1 | 61.6 ± 2.4 |  | 45.3 ± 8.7 | 54.3 ± 6.8 | 78.8 ± 5.1 | 18.7 ± 0.39 | 20.6 ± 0.91 | 20.7 ± 1.2
O=C1CC2(CCCCC2)CN1 [Gabapentin-Lactam] | 19.4 ± 2.5 | 15.6 ± 1.9 | 9.93 ± 1.6 | 44.2 ± 6.2 | 49.4 ± 1.6 | 48.4 ± 5.6 | 71.2 ± 2.9 | 22.3 ± 0.47 | 28.5 ± 1.6 | 31.2 ± 1.6
CCNC(=O)[C@@H](C)OC(=O)Nc1ccccc1 [Carbetamide] | 49.6 ± 7.6 | 45.6 ± 4.6 | 37.2 ± 8 | 50.4 ± 4.4 | 47.2 ± 3.9 | 53.1 ± 6.2 | 69.9 ± 2.7 | 8.92 ± 0.88 | 14.1 ± 3.2 | 16.5 ± 2.4
CN1CCCC(n2nc(Cc3ccc(Cl)cc3)c3ccccc3c2=O)CC1 (stereo not drawn) [Azelastine] | 1.03 ± 0.14 | 1.27 ± 0.31 | 0.461 ± 0.41 |  |  | 43.9 ± 6 | 64.8 ± 3.2 | 0.00383 ± 0.0066 |  | 0.00617 ± 0.0099
Nc1ccc2c(n1)[nH]c1ccccc12 [2-Amino-9H-pyrido[2,3-b]indole (AalphaC)] | 19.66 ± 0.18 | 14.4 ± 1.5 | 9.97 ± 0.52 | 17 ± 2.6 | 28.5 ± 2.1 | 45.3 ± 7.1 | 70.8 ± 5.4 | 3 ± 0.11 | 3.49 ± 1.2 | 5.65 ± 2.5
Cc1cc(C2CCCCC2)n(O)c(=O)c1 [Ciclopirox] | 2.83 ± 1.3 | 0.638 ± 1.1 | 0.232 ± 0.4 |  |  | 46.2 ± 16 |  | 22 ± 5 | 20 ± 2.6 | 21.7 ± 2.5
ClC1=C(Cl)C2(Cl)C3C4OC4C(Cl)C3C1(Cl)C2(Cl)Cl (stereo not drawn) [Heptachlorepoxide] | 1.72 ± 1.8 | 2.34 ± 0.82 | 1.89 ± 0.21 |  |  |  |  |  | 99.4 ± 13 | 
CC(C1CC1)C(O)(Cn1cncn1)c1ccc(Cl)cc1 (stereo not drawn) [Cyproconazole] | 2.91 ± 0.36 | 2.32 ± 0.46 | 1.25 ± 0.088 |  |  |  |  | 37.7 ± 1.8 | 41.6 ± 3.6 | 41 ± 0.84
C[C@]12CCC(=O)C=C1CC[C@@H]1[C@@H]2CC[C@@]2(C)[C@H]1CC[C@]2(C)O [17alpha-Methyltestosterone] | 7.99 ± 6.9 | 12.4 ± 1.8 | 7.08 ± 1.2 |  |  |  |  | 34.6 ± 2.1 | 36.4 ± 2.9 | 37.6 ± 0.76
CO/N=C(/C1=NOCCO1)c1ccccc1Oc1ncnc(Oc2ccccc2Cl)c1F [Fluoxastrobin] | 0.73 ± 1.3 | 0.629 ± 1.1 | 0.277 ± 0.48 |  |  |  |  | 45.4 ± 3.9 | 50.3 ± 4.7 | 47.2 ± 5.7
CC1(C)CC(=O)CC(C)(C)N1 [2,2,6,6-Tetramethyl-4 piperidone] | 2.44 ± 4 |  | 1.13 ± 0.92 |  |  |  |  | 0.707 ± 0.49 | 1.17 ± 0.15 | 0.677 ± 0.17
C=CC[C@@H]1/C=C(\C)C[C@H](C)C[C@H](OC)[C@H]2O[C@@](O)(C(=O)C(=O)N3CCCC[C@H]3C(=O)O[C@H](/C(C)=C/[C@@H]3CC[C@@H](O)[C@H](OC)C3)[C@H](C)[C@@H](O)CC1=O)[C@H](C)C[C@@H]2OC [Tacrolimus] | 5.46 ± 2.7 | 1.87 ± 3.2 |  |  |  |  |  | 23.3 ± 2.5 | 27.6 ± 2.7 | 30.5 ± 2.2
